Source: patent publication US20180251431A1 (VERTEX PHARMACEUTICALS INCORPORATED, priority 2016, published 2018)
Like-named read-outs stand apart in the source and are kept apart here.

Tested on: HEK293 cells
Test: HEK293 VLCFA-LPC IC50 determination (13C-labeled C26:0 LPC by UHPLC/MS)
Type: cell-based, human
Details: Homo sapiens
Method in brief: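 Suspension HEK293 cells (final 0.5 million/mL after mixing with equal volume) incubated 48 hours with compound plus 13C-acetate (1.0 mg/mL in added media), shaking at 37° C. Lipids extracted with hexane/isopropanol or methanol, C13:0 LPC standard. UHPLC/MS of 13C-labeled C26:0 LPC (638.500/104.100 m/z); IC50 by four-parameter fit.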

[1] = HEK293, HEK293 cells, average of one or more replicates, read-out: Average HEK293 IC50
[2] = HEK293, 48 h, average of one or more replicates, 13C-labeled C26:0 LPC, 48 hours, read-out: Average HEK293 IC50

SMILES | IC50 [1] | other results
O=C(Nc1ccn(-c2cccc(Cl)c2)n1)C1(c2ccccc2)CC1 [Compound 129, N-[1-(3-chlorophenyl)pyrazol-3-yl]-1-phenyl-cyclopropanecarboxamide] | 700 nM | –
CC1(C)CC1(C(=O)Nc1ccn(-c2ccc(F)c(F)c2)n1)c1ncccc1F (stereo not shown) [Compound 514, N-[1-(3,4-difluorophenyl)pyrazol-3-yl]-1-(3-fluoro-2-pyridyl)-2,2-dimethyl-cyclopropanecarboxamide] | 1800 nM | –
Cc1cc(NC(=O)C2(c3ncccn3)CC2)nn1-c1ccc(F)cc1F [Compound 533, N-[1-(2,4-difluorophenyl)-5-methyl-pyrazol-3-yl]-1-pyrimidin-2-yl-cyclopropanecarboxamide] | > 2000 nM | –
Cc1ccccc1C1(C(=O)Nc2ccn(-c3ccnc(F)c3)n2)CC1 [Compound 252, N-[1-(2-fluoro-4-pyridyl)pyrazol-3-yl]-1-(o-tolyl)cyclopropanecarboxamide] | 400 nM | –
O=C(Nc1ccn(-c2ccccc2)n1)C1(c2cc(F)cc(F)c2)CC1 [Compound 271, 1-(3,5-difluorophenyl)-N-(1-phenylpyrazol-3-yl)cyclopropanecarboxamide] | 650 nM | –
O=C(Nc1ccn(-c2ccncc2)n1)C1(c2ncccn2)CC1 [Compound 536, N-[1-(4-pyridyl)pyrazol-3-yl]-1-pyrimidin-2-yl-cyclopropanecarboxamide] | > 5000 nM | –
O=C(Nc1ccn(-c2ncccc2F)n1)C1(c2ccccc2)CC1 [Compound 82, N-[1-(3-fluoro-2-pyridyl)pyrazol-3-yl]-1-phenyl-cyclopropanecarboxamide] | 190 nM | –
O=C(Nc1ccn(-c2ccnc(F)c2)n1)C1(c2ccccc2)CC1(F)F (racemic) [Compound 169, 2,2-difluoro-N-(1-(2-fluoropyridin-4-yl)-1H-pyrazol-3-yl)-1-phenylcyclopropane-1-carboxamide] | – | IC50 (HEK293, read-out: Average HEK293 IC50): 52 nM
O=C(Nc1ccn(-c2ccccc2)n1)C1(c2c(F)cccc2F)CC1 [Compound 267, 1-(2,6-difluorophenyl)-N-(1-phenylpyrazol-3-yl)cyclopropanecarboxamide] | 13 nM | –
O=C(Cc1ccccc1F)Nc1ccn(-c2cc(F)ccc2F)n1 [Compound 162, N-[1-(2,5-difluorophenyl)pyrazol-3-yl]-2-(2-fluorophenyl)acetamide] | 740 nM | –
O=C(Nc1ccn(-c2ccnc(F)c2)n1)C1(c2cc(Cl)ccc2F)CC1 [Compound 264, 1-(5-chloro-2-fluoro-phenyl)-N-[1-(2-fluoro-4-pyridyl)pyrazol-3-yl]cyclopropanecarboxamide] | 190 nM | –
CC1CC1(C(=O)Nc1ccn(-c2cc(F)cc(F)c2)n1)c1ncccc1F (stereo not shown) [Compound 508, N-[1-(3,5-difluorophenyl)pyrazol-3-yl]-1-(3-fluoro-2-pyridyl)-2-methyl-cyclopropanecarboxamide] | 71 nM | –
O=C(Cc1c(Cl)cccc1Cl)Nc1ccn(-c2ccccc2)n1 [Compound 70, 2-(2,6-dichlorophenyl)-N-(1-phenylpyrazol-3-yl)acetamide] | > 2000 nM | –
O=C(Cc1ccc(F)cc1)Nc1ccn(-c2nccs2)n1 [Compound 91, 2-(4-fluorophenyl)-N-(1-thiazol-2-ylpyrazol-3-yl)acetamide] | 1900 nM | –
O=C(Cc1ccccc1F)Nc1ccn(-c2ccc(F)c(F)c2)n1 [Compound 191, N-[1-(3,4-difluorophenyl)pyrazol-3-yl]-2-(2-fluorophenyl)acetamide] | 240 nM | –
O=C(Cc1cncnc1)Nc1ccn(-c2ccnc(F)c2)n1 [Compound 236, N-[1-(2-fluoro-4-pyridyl)pyrazol-3-yl]-2-pyrimidin-5-yl-acetamide] | > 5000 nM | –
O=C(Nc1ccn(-c2ccc(Cl)cc2)n1)C1(c2ccccc2)CC1 [Compound 132, N-[1-(4-chlorophenyl)pyrazol-3-yl]-1-phenyl-cyclopropanecarboxamide] | > 5000 nM | –
O=C(Nc1cc(F)n(-c2cncc(F)c2)n1)C1(c2ccccc2F)CC1 [Compound 463, N-[5-fluoro-1-(5-fluoro-3-pyridyl)pyrazol-3-yl]-1-(2-fluorophenyl)cyclopropanecarboxamide] | > 5000 nM | –
O=C(Nc1ccn(-c2ccncc2)n1)C1(c2ccc(F)cn2)CC1 [Compound 489, 1-(5-fluoro-2-pyridyl)-N-[1-(4-pyridyl)pyrazol-3-yl]cyclopropanecarboxamide] | 1500 nM | –
O=C(Cc1ccccc1F)Nc1ccn(-c2ccc(F)cc2)n1 [Compound 183, 2-(2-fluorophenyl)-N-[1-(4-fluorophenyl)pyrazol-3-yl]acetamide] | 170 nM | –
N#Cc1ccccc1C1(C(=O)Nc2ccn(-c3ccccc3)n2)CC1 [Compound 242, 1-(2-cyanophenyl)-N-(1-phenylpyrazol-3-yl)cyclopropanecarboxamide] | > 2000 nM | –
O=C(Nc1ccn(-c2cncc(Cl)c2)n1)C1(c2ncccc2F)CC12CC2 (stereo not shown) [Compound 520, N-[1-(5-chloro-3-pyridyl)pyrazol-3-yl]-2-(3-fluoro-2-pyridyl)spiro[2.2]pentane-2-carboxamide] | 1600 nM | –

SMILES | IC50 [1] | other results
COc1cccc(CC(=O)Nc2ccn(-c3ccccc3)n2)c1OC [Compound 7, 2-(2,3-dimethoxyphenyl)-N-(1-phenylpyrazol-3-yl)acetamide] | > 5000 nM | –
O=C(Nc1ccn(-c2ccnc(F)c2)n1)C1(c2ccccc2)CCOCC1 [Compound 174, N-[1-(2-fluoro-4-pyridyl)pyrazol-3-yl]-4-phenyl-tetrahydropyran-4-carboxamide] | > 5000 nM | –
O=C(Nc1ccn(-c2nccs2)n1)C1(c2ccccc2F)CC1 [Compound 92, 1-(2-fluorophenyl)-N-(1-thiazol-2-ylpyrazol-3-yl)cyclopropanecarboxamide] | 38 nM | –
O=C(Nc1ccn(-c2ccc(C(F)(F)F)cc2)n1)C1(c2ncccc2F)CC1 [Compound 457, 1-(3-fluoro-2-pyridyl)-N-[1-[4-(trifluoromethyl)phenyl]pyrazol-3-yl]cyclopropanecarboxamide] | > 5000 nM | –
COc1cc(-n2ccc(NC(=O)C3(c4ccccc4F)CC3)n2)cc(OC)c1OC [Compound 321, 1-(2-fluorophenyl)-N-[1-(3,4,5-trimethoxyphenyl)pyrazol-3-yl]cyclopropanecarboxamide] | – | IC50 [2]: > 5000 nM
Cc1cncnc1-n1ccc(NC(=O)C2(c3ccccc3F)CC2)n1 [Compound 360, 1-(2-fluorophenyl)-N-[1-(5-methylpyrimidin-4-yl)pyrazol-3-yl]cyclopropanecarboxamide] | – | IC50 [2]: 69 nM
COc1ccc(C2(C(=O)Nc3ccn(-c4ccccc4)n3)CC2)cc1 [Compound 25, 1-(4-methoxyphenyl)-N-(1-phenylpyrazol-3-yl)cyclopropanecarboxamide] | 3600 nM | –
O=C(Nc1ccn(-c2ccccc2)n1)C1(c2ccccn2)CC1 [Compound 225, N-(1-phenylpyrazol-3-yl)-1-(2-pyridyl)cyclopropanecarboxamide] | 75 nM | –
O=C(Nc1ccn(-c2ccncc2)n1)C1(c2cccs2)CC1 [Compound 482, N-[1-(4-pyridyl)pyrazol-3-yl]-1-(2-thienyl)cyclopropanecarboxamide] | 39 nM | –
O=C(Nc1ccn(-c2ccncn2)n1)C1(c2ncccc2F)CC1 [Compound 279, 1-(3-fluoro-2-pyridyl)-N-(1-pyrimidin-4-ylpyrazol-3-yl)cyclopropanecarboxamide] | 520 nM | –
O=C(Nc1ccn(-c2cccnn2)n1)C1(c2ncccc2F)CC1 [Compound 458, 1-(3-fluoro-2-pyridyl)-N-(1-pyridazin-3-ylpyrazol-3-yl)cyclopropanecarboxamide] | 940 nM | –
O=C(Cc1ccccc1)Nc1ccn(-c2ccc(F)c(Cl)c2)n1 [Compound 197, N-[1-(3-chloro-4-fluoro-phenyl)pyrazol-3-yl]-2-phenyl-acetamide] | > 5000 nM | –
CNc1ncc(-n2ccc(NC(=O)C3(c4ccccc4F)CC3)n2)cc1F [Compound 431, N-[1-[5-fluoro-6-(methylamino)-3-pyridyl]pyrazol-3-yl]-1-(2-fluorophenyl)cyclopropanecarboxamide] | 860 nM | –
O=C(Nc1ccn(-c2ccccc2)n1)[C@]1(c2ccccc2)CC12CCCC2 [Compound 145, (2R)-2-phenyl-N-(1-phenylpyrazol-3-yl)spiro[2.4]heptane-2-carboxamide] | > 5000 nM | –
O=C(Cc1cc(F)cc(C(F)(F)F)c1)Nc1ccn(-c2ccccc2)n1 [Compound 72, 2-[3-fluoro-5-(trifluoromethyl)phenyl]-N-(1-phenylpyrazol-3-yl)acetamide] | > 5000 nM | –
N#Cc1cnccc1-n1ccc(NC(=O)C2(c3ccccc3F)CC2)n1 [Compound 335, N-[1-(3-cyano-4-pyridyl)pyrazol-3-yl]-1-(2-fluorophenyl)cyclopropanecarboxamide] | – | IC50 [2]: > 5000 nM
O=C(Cc1ccccc1F)Nc1ccn(-c2ccnc(Cl)c2)n1 [Compound 4, N-[1-(2-chloro-4-pyridyl)pyrazol-3-yl]-2-(2-fluorophenyl)acetamide] | 650 nM | –
O=C(Nc1ccn(-c2ccccc2)n1)C1(c2cc(F)cc(C(F)(F)F)c2)CC1 [Compound 29, 1-[3-fluoro-5-(trifluoromethyl)phenyl]-N-(1-phenylpyrazol-3-yl)cyclopropanecarboxamide] | 1900 nM | –
CCOc1ccc(CC(=O)Nc2ccn(-c3ccccc3)n2)cc1 [Compound 47, 2-(4-ethoxyphenyl)-N-(1-phenylpyrazol-3-yl)acetamide] | > 5000 nM | –
O=C(Nc1ccn(-c2cncc(F)c2)n1)[C@@]1(c2ncccc2F)CC12CC2 (single isomer, unassigned) [Compound 500] | – | IC50 [2]: 430 nM
O=C(Cc1ccccc1)Nc1ccn(-c2ccnc(C(F)(F)F)c2)n1 [Compound 123, 2-phenyl-N-[1-[2-(trifluoromethyl)-4-pyridyl]pyrazol-3-yl]acetamide] | 1500 nM | –
